Experimental data published in US8895509B2, “MIR-200 family induces mesenchymal-to-epithelial transition (MET) in ovarian cancer cells” (Georgia Tech Research Corporation, priority 2010, dated 2014).
Entries after “also recorded” stand apart in the source; their conditions may differ.

Legend:
Assay type in all cases: cell-based, human
HEY cells [1] = experiment: sensitivity of transfected HEY cells to cisplatin; settings: miR-429 vs negative control miRNA
Method: Cultures of the mesenchymal HEY cells were transfected with a negative control (NC) miRNA or miR-429 using Lipofectamine 2000 (Invitrogen) and treated with increasing concentrations of cisplatin. (0.1, 0.5, 1, 3, 5, 7, 10, 15, 20, 30, 50 μM).

HEY cells [2] = experiment: anchorage-independent growth in soft agar; settings: 8 days in soft agar, vs negative control
Method: Anchorage independent growth was examined using Cell Biolab's (San Diego, Calif.) soft agar kit according to the manufacturer's protocol. Briefly, 5,000 cells were grown in a 0.3% low melting temperature agar matrix. After 8 days of incubation, the agar matrix was solubilized, cells stained and absorbance recorded at 520 nm. The optical density (OD) was measured in a 96-well plate reader using a 485/520 nm filter set.
Anchorage-independent growth is another characteristic of mesenchymal cells and is considered a hallmark of cellular transformation [Takeyama et al., Cancer Lett 2010; 96:216-24]. We tested anchorage-independent growth of HEY cells transfected with miR-429 relative to controls.

HEY cells [3] = experiment: serum-induced migration, trans-well chamber assay; settings: miR-429 transfected HEY cells vs negative control
Method: (§1) For the migration and invasion assays, 2.5×10^3 overnight serum starved cells in serum-free media were added to the top chambers of trans-well plates (8 μm pore size; BD, Franklin Lakes, N.J.) and media containing 10% fetal calf serum (FCS) were added to the bottom chambers. After 8-12 h, the non-migrating (top) cells were removed and the invading (bottom) cells were counted. All assays were done in triplicate. For the wound-healing assay, 2.5×10^5 cells were seeded into six-well plates. After 24 h, a wound was incised, detached cells removed and fresh media added. Photos were taken after 8 hrs to monitor the invasion of cells into the wounded area.
(§2) To further explore the effects of ectopic expression of miR-429 in HEY cells, we looked for changes in cellular functions frequently associated with EMT. For example, ovarian and other types of cancer cells undergoing EMT typically display increased motility/migration and invasiveness. […] Relative invasiveness was also measured by monitoring serum-induced invasion through a matrigel layer.

HEY cells [4] = experiment: serum-induced invasion through a matrigel layer; settings: miR-429 transfected HEY cells vs negative control
Method: as §1, §2

HEY cells [5] = experiment: qRT-PCR of EMT marker mRNAs in transfected HEY cells
Method: (§3) 6×10^4 cells per well were seeded in 24-well plates. After 24 h, cells were transfected with 30 nM of miR-429 and miR-320 miRNA oligonucleotides (Ambion, Austin, Tex.) using Lipofectamine 2000 reagent (Invitrogen, Carlsbad, Calif.). The Ambion Pre-miRNA Precursor Negative Control was used as a control. Three days after transfection, cells were split and transfected again. This process was repeated every 3 days until 21 days when cells were assayed for response.
Total RNA was extracted from cells using the miRVana miRNA isolation kit (Ambion). MicroRNA expression was carried our using TaqMan microRNA assays (Applied Biosystems, Carlsbad, Calif.) with human U6 as the endogenous control. For mRNA quantitation, RNA (4.0 μg) was reversed transcribed into cDNA using the Superscript III First-strand Synthesis System (Invitrogen) according to the manufacturer's instructions using sequence specific primers. Real-time PCR was performed using Power SYBR Green PCR Master Mix (Bio-Rad, Hercules, Calif.) and data normalized to glyceraldehydes-3-phosphate-dehydrogenase (GAPDH). Each transfection experiment was carried out in triplicate with 3 PCR reactions performed per transfection. The PCR results were analyzed by 1-way Analysis of Variance (ANOVA) and the Newman-Keuls-Student t test. A p value of <0.05 was considered significant.

HEY cells [6] = experiment: morphology of HEY cells after microRNA transfection; settings: transfected with 30 nM miRNA, vs negative control
Text: The OVCAR3 cell line was originally established from the ascites of a patient with poorly differentiated papillary epithelial OC [Hamilton et al., Cancer Res 1985, 45:3668-76]. The OVCAR3 cell line was obtained from the American Type Culture Collection (Manassas, Va.). The HEY cell line was derived from a patient with moderately differentiated papillary cystadenocarcinoma of the ovary [Buick et al., Cancer Res 1985, 45:3668-76]. The HEY cell line was kindly provided by Gordon Mills, Department of Molecular Therapeutics, University of Texas, MD Anderson Cancer Center.
as §3

Substance: miR-429: miR-200 family member; mature miRNA UAAUACUGUCUGGUAAAACCGU (SEQ ID NO: 6); miRNA oligonucleotide (Ambion) transfected at 30 nM (listed as RNA, chemistry not given here; listed as Homo sapiens) [miR-200 family member; miRNA oligonucleotide (Ambion) transfected at 30 nM]
- sensitivity to cisplatin (HEY cells [1]): increased significantly
- anchorage-independent growth (HEY cells [2]): significant suppression; also recorded: significantly reduced
- migration through pores, slower than negative controls (HEY cells [3]): > 2 fold
- decrease in invasion relative to controls (HEY cells [4]): > 5 fold
- levels of E-cadherin mRNA (HEY cells [5]): concomitant increase; also recorded: significantly higher
- levels of FN1 (fibronectin) mRNA (HEY cells [5]): No significant difference
- levels of N-cadherin mRNA (HEY cells [5]): No significant difference
- levels of VIM (vimentin) mRNA (HEY cells [5]): No significant difference
- levels of ZEB1 mRNA (HEY cells [5]): significant decrease; also recorded: significantly lower
- levels of ZEB2 mRNA (HEY cells [5]): significant decrease; also recorded: significantly lower
- morphological change of HEY cells (HEY cells [6]): morphological change from an elongated, spindle-shaped, mesenchymal phenotype to a more rounded, epithelial-like phenotype; also recorded: change from an elongated mesenchymal-like morphology to a rounded epithelial-like morphology
